Results: patent US10370352B2, “Cyclobutyl-imidazolidinone compounds” (Eli Lilly and Company, priority 2017, dated 2019)

Experiments:
human ASK1 = human ASK1 (Homo sapiens (Human), UniProt Q99683); assay: ASK1 autophosphorylation (Thr838) assay in HEK293 cells overexpressing human ASK1; type: cell-based; conditions: for IC50: H2O2-stimulated (1 mM, 10 min) ASK1 autophosphorylation at Thr838, HEK293 cells, HTRF, mean ± standard deviation, read-out: HEK pASK1 IC50; for Efficacy: HEK pASK1 assay, standard benzamide ASK1 inhibitor = 100% inhibition, DMSO = 0%
[1] = biological target: recombinant human ASK1 (hASK1) catalytic domain (Homo sapiens (Human), UniProt Q99683); assay: ASK1 enzymatic assay (ADP-Glo Kinase Assay); type: biochemical; conditions: for IC50: hASK1 0.25 nM, MKK6 300 nM, ATP 100 μM, mean ± standard deviation; for Efficacy: hASK1 enzymatic assay, standard benzamide ASK1 inhibitor = 100% inhibition, DMSO = 0%
From the text: The purpose of this assay is to determine the effect of ASK1 inhibitors on the production of ADP by ASK1. The recombinant human ASK1 (hASK1) catalytic domain tagged with Glutathione S-transferase is used, and histidine-tagged full-length human MAP kinase kinase 6 (MKK6) and ATP are the substrate and cofactor, respectively.
The assay is done using an ADP-Glo™ Kinase Assay Kit (Promega, Catalog #V9102) according to the manufacturer's protocol with the following modifications. Briefly, hASK1 (0.25 nM) and MKK6 (300 nM) in a buffer (10 mM MOPS pH 7.0; 10 mM Mg-Acetate; 1 mM DTT; 0.025% NP-40; 0.05% BSA; 1.5% glycerol) are incubated with ASK1 inhibitors at varying concentrations ranging from 10.00 μM to 0.17 nM for 15 minutes, followed by incubation with ATP (100 μM) for 30 minutes at room temperature. ADP-Glo™ Reagent is added to terminate the kinase reaction and deplete the remaining ATP. The Kinase Detection Reagent is then added to convert ADP to ATP. The newly synthesized ATP is measured using a luciferase/luciferin reaction, and the luminescence determined by Envision (PerkinElmer). The luminescence intensities are analyzed by GeneData, and fit to a 4 parameter dose response-inhibitor logistics curve to determine IC50 values, using the effects of 5-(4-cyclopropyl-1H-imidazol-1-yl)-2-fluoro-4-methyl-N-{6-[4-(propan-2-yl)-4H-1,2,4-triazol-3-yl]pyridin-2-yl}benzamide as a standard and DMSO vehicle for 100% and 0% inhibition, respectively.

Chain of recombinant human ASK1 (hASK1) catalytic domain (Q99683 680-938): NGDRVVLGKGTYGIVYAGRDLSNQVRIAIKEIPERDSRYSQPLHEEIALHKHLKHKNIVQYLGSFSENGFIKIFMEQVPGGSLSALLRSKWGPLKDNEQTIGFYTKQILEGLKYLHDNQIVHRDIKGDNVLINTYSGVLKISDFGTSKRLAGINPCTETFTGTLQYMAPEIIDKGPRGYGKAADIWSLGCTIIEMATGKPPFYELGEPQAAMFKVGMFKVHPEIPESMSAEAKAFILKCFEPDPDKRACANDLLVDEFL
Chain of human ASK1 (Q99683 whole entry, the tested form may be a part): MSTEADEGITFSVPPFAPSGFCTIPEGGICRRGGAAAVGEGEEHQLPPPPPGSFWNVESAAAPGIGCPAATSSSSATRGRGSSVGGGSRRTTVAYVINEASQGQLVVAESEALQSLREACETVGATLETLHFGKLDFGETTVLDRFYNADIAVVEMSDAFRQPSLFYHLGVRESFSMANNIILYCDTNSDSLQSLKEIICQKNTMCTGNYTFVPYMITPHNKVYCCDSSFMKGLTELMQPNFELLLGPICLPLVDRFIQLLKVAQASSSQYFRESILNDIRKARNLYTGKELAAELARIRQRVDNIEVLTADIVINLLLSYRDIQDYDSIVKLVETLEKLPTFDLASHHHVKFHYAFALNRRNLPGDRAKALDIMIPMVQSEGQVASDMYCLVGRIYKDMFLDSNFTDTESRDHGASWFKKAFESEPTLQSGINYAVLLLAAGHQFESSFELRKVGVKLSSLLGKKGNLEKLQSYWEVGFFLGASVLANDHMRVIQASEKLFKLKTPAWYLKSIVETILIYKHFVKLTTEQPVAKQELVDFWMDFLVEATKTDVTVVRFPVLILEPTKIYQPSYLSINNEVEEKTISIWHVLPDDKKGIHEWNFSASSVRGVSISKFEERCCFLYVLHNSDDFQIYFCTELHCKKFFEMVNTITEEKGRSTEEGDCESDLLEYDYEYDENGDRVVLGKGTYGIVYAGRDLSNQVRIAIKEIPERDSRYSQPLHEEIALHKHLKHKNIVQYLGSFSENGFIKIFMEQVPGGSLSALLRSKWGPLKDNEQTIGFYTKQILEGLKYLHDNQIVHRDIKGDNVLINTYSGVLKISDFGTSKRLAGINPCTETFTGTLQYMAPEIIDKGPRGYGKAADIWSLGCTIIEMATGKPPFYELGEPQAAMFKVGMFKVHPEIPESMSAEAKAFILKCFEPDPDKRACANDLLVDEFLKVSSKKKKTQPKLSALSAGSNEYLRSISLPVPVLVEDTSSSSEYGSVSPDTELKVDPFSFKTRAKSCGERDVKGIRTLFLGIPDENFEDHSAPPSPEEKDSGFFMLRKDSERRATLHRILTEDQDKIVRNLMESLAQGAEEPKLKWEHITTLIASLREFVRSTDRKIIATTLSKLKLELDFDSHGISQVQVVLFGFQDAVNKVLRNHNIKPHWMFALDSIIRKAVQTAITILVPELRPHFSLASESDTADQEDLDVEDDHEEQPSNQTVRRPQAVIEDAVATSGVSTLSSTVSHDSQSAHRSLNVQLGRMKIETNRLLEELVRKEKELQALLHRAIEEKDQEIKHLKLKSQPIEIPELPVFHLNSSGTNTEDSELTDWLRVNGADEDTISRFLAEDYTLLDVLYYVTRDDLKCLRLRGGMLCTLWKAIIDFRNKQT

Row | Compound | IC50 (human ASK1) [nM] | Efficacy (human ASK1) [%] | IC50 [1] [nM] | Efficacy [1] [%]
1 | CC(C)n1cnnc1-c1cccc(N2CCN(C3CC(n4cnc(C5CC5)n4)C3)C2=O)n1 (stereo not drawn) [Example 4, 1-[3-(3-Cyclopropyl-1,2,4-triazol-1-yl)cyclobutyl]-3-[6-(4-isopropyl-1,2,4-triazol-3-yl)-2-pyridyl]imidazolidin-2-one] | 108 | 99 | 2.56 ± 0.68 | 100
2 | CC(C)n1cc(C2CC(N3CCN(c4cccc(-c5nncn5C(C)C)n4)C3=O)C2)cn1 (stereo not drawn) [Example 6, 1-[3-(1-Isopropylpyrazol-4-yl)cyclobutyl]-3-[6-(4-isopropyl-1,2,4-triazol-3-yl)-2-pyridyl]imidazolidin-2-one] | 27.1 | 102 | 2.17 ± 0.45 | 100
3 | CC(C)n1cnnc1-c1cccc(N2CCN(C3CC(n4cnc(C(F)(F)F)c4)C3)C2=O)n1 (stereo not drawn) [Example 3, 1-(6-(4-Isopropyl-4H-1,2,4-triazol-3-yl)pyridin-2-yl)-3-(3-(4-(trifluoromethyl)-1H-imidazol-1-yl)cyclobutyl)imidazolidin-2-one] | 126 | 98.5 | 2.8 ± 0.97 | 100
4 | CC(C)n1cnnc1-c1cccc(N2CCN(C3CC(n4cnc(C(C)(C)C)c4)C3)C2=O)n1 (stereo not drawn) [Example 5, 1-(3-(4-(tert-Butyl)-1H-imidazol-1-yl)cyclobutyl)-3-(6-(4-isopropyl-4H-1,2,4-triazol-3-yl)pyridin-2-yl)imidazolidin-2-one] |  |  | 1.84 ± 0.64 | 100

Now from value to molecule:

Row | IC50 (human ASK1) [nM] | Efficacy (human ASK1) [%] | IC50 [1] [nM] | Efficacy [1] [%] | Compound
5 | 48.8 ± 19.1 | 105 | 1.47 ± 0.6 | 100 | CC(C)n1cnnc1-c1cccc(N2CCN(C3CC(n4cnc(C5CC5)c4)C3)C2=O)n1 (single isomer, unassigned) [Example 2, 1-[3-(4-Cyclopropylimidazol-1-yl)cyclobutyl]-3-[6-(4-isopropyl-1,2,4-triazol-3-yl)-2-pyridyl]imidazolidin-2-one]
6 | 235 | 97.5 | 5.26 ± 0.72 | 100 | Cc1ccc(C2CC(N3CCN(c4cccc(-c5nncn5C(C)C)n4)C3=O)C2)cn1 (single isomer, unassigned) [Example 8, 1-[6-(4-Isopropyl-1,2,4-triazol-3-yl)-2-pyridyl]-3-[3-(6-methyl-3-pyridyl)cyclobutyl]imidazolidin-2-one]
7 |  |  | 6.21 ± 4.18 | 100 | Cc1ncc(C2CC(N3CCN(c4cccc(-c5nncn5C(C)C)n4)C3=O)C2)cn1 (single isomer, unassigned) [Example 9, 1-(6-(4-Isopropyl-4H-1,2,4-triazol-3-yl)pyridin-2-yl)-3-(3-(2-methylpyrimidin-5-yl)cyclobutyl)imidazolidin-2-one]
